From patent publication US9499493B2, “2,4-pyrimidinediamine compounds and their uses” (Rigel Pharmaceuticals, Inc., priority 2002, dated 2016) come the findings set out here.

Data set [1] has as its system CHMC cells. The data set can be described thus: Phosphorylation of proteins downstream of Syk / LYN kinase in the FcεRI cascade, activated CHMC cells. It is filed as cell-based, human. As to conditions: varying concentrations, FIG. 10.
The subject of data set [2] is BMMC cells. The data set can be described thus: Phosphorylation of proteins downstream of Syk kinase in the IgE receptor cascade, activated BMMC cells. The format is cell-based, mouse. The conditions noted are these: varying concentrations, FIG. 7.
The target of data set [3] is Syk kinase (Homo sapiens (Human), UniProt P43405). The experiment in a line: Isolated Syk kinase: phosphorylation of a peptide substrate or endogenous substrate (LAT).
Data set [4] deals with bone marrow derived mast cells (BMMC). The experiment in a line: BMMC high cell density IgE activation: histamine. It is filed as cell-based, mouse. The conditions noted are these: anti-IgE, second part of TABLE 1. A digest of the protocol:
(§1)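 IgE-sensitized BMMC (1-3×10^6 cells/ml, MT buffer) were pretreated with compound for 1 h at 37 °C in 0.5% DMSO, then stimulated with DNP-BSA (6× stimulus, 60 ng/ml) for 1 h. Supernatant was taken, and cells were re-incubated 4–5 h in WEI-conditioned medium with compound. Mediators were quantified by ELISA.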

The nature of data set [5]: in vitro chromosomal aberration assay.
Data set [6] is described as follows: Pilot dose finding studies (oral). The conditions noted are these: in vivo.
Data set [7] deals with Salmonella-Escherichia coli tester strains.
The subject of data set [8] is cultured human mast cells (CHMC). The experiment in a line: CHMC high cell density IgE activation: TNFalpha. The format is cell-based. As to conditions: anti-IgE activation; read-out: CHMC high density TNF-alpha. A digest of the protocol:
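IgE-sensitized CHMC at 1-2×10^6 cells/ml were pretreated with compound for 1 h at 37 °C (0.5% DMSO final), then anti-IgE-stimulated for 1 h and supernatant collected. Hexosaminidase was read with a fluorogenic substrate. Pellets were re-incubated 7 h with compound before supernatant ELISAs.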

Data set [9] deals with bone marrow derived mast cells (BMMC). The data set can be described thus: BMMC high cell density IgE activation: hexosaminidase. It is filed as cell-based, mouse. As to conditions: anti-IgE, second part of TABLE 1, read-out: BMMC anti-IgE hexos. IC50. In short, it runs like this:
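IgE-sensitized BMMC at 1-3×10^6 cells/ml preincubated 1 hour at 37° C. with compound (0.5% DMSO), then stimulated 1 hour with DNP-BSA (6× stimulus 60 ng/ml). Supernatant hexosaminidase measured with 2 mM 4-methylumbelliferyl-N-acetyl-glucosaminide substrate at 37° C., read at 5–30 minutes.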

For data set [10] the test system is unchanged. The experiment in a line: BMMC high cell density IgE activation: IL-6. The format is cell-based, mouse. The conditions noted are these: anti-IgE, second part of TABLE 1. A digest of the protocol:
as §1

The test system of data set [11] is cultured human mast cells (CHMC). The data set can be described thus: CHMC high cell density IgE activation: tryptase. It is filed as cell-based. The conditions noted are these: anti-IgE activation. In short, it runs like this: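 IgE-sensitized CHMC at 1-2×10^6 cells/ml in MT buffer were pretreated with compound for 1 h at 37 °C (0.5% DMSO final), then stimulated with anti-IgE for 1 h. Tryptase was measured in 1:500-diluted supernatant. Pellets were re-incubated for 7 h with compound in CM media, and supernatants were assayed by ELISA.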

Setting [12] is: increasing concentrations, FIG. 8.

Take `CNC(=O)COc1cccc(Nc2ncc(F)c(Nc3ccc4c(c3)NCCO4)n2)c1` [R921219, N4-(1,4-Benzoxazin-6-yl)-5-fluoro-N2-[3-(N-methylamino)carbonylmethyleneoxyphenyl]-2,4-pyrimidinediamine]: in [1], the “phosphorylation of proteins downstream of Syk kinase” value is listed as “inhibit”. In data set [2], the “phosphorylation of various proteins downstream of Syk kinase” value is “inhibit”. Further, in [3] (FIG. 9), the “mode of inhibition of Syk kinase” value is reported as “ATP competitive”. In [3] (setting [12]), the “Syk kinase phosphorylation of a peptide substrate” value is listed as “dose responsive inhibition”. Further, in [3] (setting [12]), the “Syk kinase phosphorylation of an endogenous substrate (LAT)” value is “dose responsive inhibition”. The values for the IC50 in [4] and in [8] were 58 nM and 190 nM, respectively. In [5], the clastogenic potential result is on record as “not found to possess clastogenic potential”. Further, in data set [6], the “multiple (7-day) doses not tolerated” value is at least 200 mg/kg/day. In [7], the Ames test result was “test positive in tester strain TA1537, with and without metabolic activation”.
On to `CNC(=O)COc1cccc(Nc2ncc(F)c(Nc3cccc(O)c3)n2)c1` [R926508, 5-Fluoro-N4-(3-hydroxyphenyl)-N2-[3-(N-methylamino)carbonylmethyleneoxyphenyl]-2,4-pyrimidinediamine], for which the results for the IC50 in data set [9], in data set [10] and in data set [11] were 86 nM, 26 nM and 434 nM, respectively.
